Data from patent US20260297065A1, “AROMATIC SUBSTITUENT-CONTAINING (HETERO) ARYL-IMIDAZOLE COMPOUND, AND PREPARATION METHOD THEREFOR AND USE THEREOF” (OPEN SOURCE THERAPEUTICS, priority 2022, published 2026).
pIC50: −log10 of the molar value.

The compounds below were run against T1, soluble epoxide hydrolase (sEH) (Homo sapiens, UniProt P34913) (assay: in vitro biochemical activity test, sEH enzyme inhibition with EET substrate (LC-MS)). Conditions: 90 min pre-incubation at room temperature, 60 min reaction.
T1 sequence (P34913 1-555): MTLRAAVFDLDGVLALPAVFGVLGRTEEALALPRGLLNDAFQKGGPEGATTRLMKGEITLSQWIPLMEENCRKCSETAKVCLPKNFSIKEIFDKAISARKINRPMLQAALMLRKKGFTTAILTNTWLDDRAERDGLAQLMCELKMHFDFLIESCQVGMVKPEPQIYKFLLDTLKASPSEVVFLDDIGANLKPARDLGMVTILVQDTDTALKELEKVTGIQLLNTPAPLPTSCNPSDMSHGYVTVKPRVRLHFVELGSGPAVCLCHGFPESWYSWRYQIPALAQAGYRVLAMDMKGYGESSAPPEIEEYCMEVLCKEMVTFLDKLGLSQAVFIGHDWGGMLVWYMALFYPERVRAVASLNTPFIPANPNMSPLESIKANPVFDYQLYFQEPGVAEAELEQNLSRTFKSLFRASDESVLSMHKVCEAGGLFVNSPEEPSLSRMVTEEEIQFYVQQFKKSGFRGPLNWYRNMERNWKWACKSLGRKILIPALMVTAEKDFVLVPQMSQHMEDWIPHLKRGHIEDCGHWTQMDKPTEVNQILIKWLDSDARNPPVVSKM
Method: This example relates to the relationship between the structure and activity of (hetero)aryl imidazole compounds containing an aromatic substituent. Specifically, the biochemical activity of the (hetero)aryl imidazole compounds containing an aromatic substituent described in Example 1 as sEH enzyme inhibitors was evaluated by in vitro activity test experiments.
The experimental procedures for evaluating in vitro biochemical activity were described below.
The substrate used in the evaluation experiment was epoxyeicosatrienoic acid (EET). The solutions used in the evaluation experiments were Bis/Tris HCl 25 mM pH 7.0, Bis/Tris HCl 25 mM pH 7.0 containing 0.1 mg/mL BSA was used as buffer A, and Bis/Tris HCl 25 mM pH 7.0 containing 36.3 mM ZnSO4 was used as buffer B.
The specific steps of the evaluation experiment were as follows. 79 μL of buffer A was added to each well in a black 96-well plate and then 1 μL solution of the aromatic substituent-containing (hetero)aryl imidazole compound was added. Then, 10 μL sEH (1 μM) buffer A solution was added to the wells. After pre-incubation at room temperature for 90 min, 10 μL EET (10 μM) buffer A solution was added to trigger the reaction. After the mixture was allowed to react […] for 60 min, 15 μL buffer B and 180 μL acetonitrile were added to quench the reaction, followed by high-speed centrifugation and filtration for later use.
LC-MS was used to detect the concentration of EET in the samples. The final IC50 was calculated based on three independent experiments using Graphpad Prism software.
In the case of `Cc1nc(N)ncc1-c1cc2nc(-c3ccc(S(=O)(=O)N(C)C)cc3)[nH]c2c(F)c1Cl` [Compound 31, 4-(6-(2-amino-4-methylpyr-imid-5-yl)-5-chloro-4-fluoro-1H-benzo[d]imidazol-2-yl)-N,N-dimethylbenzenesulfon-amide], the pIC50 was 10.07. `COc1nc(C)ncc1-c1cc2nc(-c3ccc(S(=O)(=O)N(C)C)cc3)[nH]c2cc1F` [Compound 32, 4-(5-fluoro-6-(4-methoxy-2-methylpyrimid-5-yl)-1H-benzo[d]imidazol-2-yl)-N,N-dimethylbenzenesulfonamide] showed a pIC50 of 9.89. For `CN(C)S(=O)(=O)c1ccc(-c2nc3cc(-c4cncnc4C(F)(F)F)c(F)cc3[nH]2)cc1` [Compound 33, 4-(5-fluoro-6-(4-(trifluoro-methyl)pyrimid-5-yl)-1H-benzo [d]imidazol-2-yl)-N,N-dimeth-ylbenzenesulfonamide], the pIC50 was 9.82. With `CC(C)c1nc(N)ncc1-c1cc2nc(-c3ccc(S(=O)(=O)N(C)C)cc3)[nH]c2cc1F` [Compound 34, 4-(6-(2-amino-4-isopropyl-pyrimid-5-yl)-5-fluoro-1H-benzo[d]imidazol-2-yl)-N,N-dimethylbenzenesulfonamide] the pIC50 was 10.24. `Cc1nc(N)ncc1-c1cc2nc(-c3ccc(S(=O)(=O)N(C)C)cc3)[nH]c2c(Cl)c1F` [Compound 35, 4-(6-(2-amino-4-methylpyr-imid-5-yl)-4-chloro-5-fluoro-1H-benzo[d]imidazol-2-yl)-N,N-dimethylbenzenesulfon-amide] gave a pIC50 of 10.35. With `Cc1cc(F)ncc1-c1cc2nc(-c3ccc(S(N)(=O)=O)cc3)[nH]c2cc1F` [Compound 36, 4-(5-fluoro-6-(6-fluoro-4-methylpyridin-3-yl)-1H-benzo [d]imidazol-2-l)benzenesulfon-amide] the pIC50 was 9.27. `CNS(=O)(=O)c1ccc(-c2nc3cc(-c4cnc(F)cc4C)c(F)cc3[nH]2)cc1` [Compound 37, 4-(5-fluoro-6-(6-fluoro-4-methylpyridin-3-yl)-1H-benzo [d]imidazol-2-yl)-N-methyl-benzenesulfonamide] was tested, and the pIC50 was 9.42. `CN(C)S(=O)(=O)c1ccc(-c2nc3cc(-c4ccnn4C(C)(C)F)c(F)cc3[nH]2)cc1` [Compound 38, 4-(5-fluoro-6-(1-(2-fluoropro-pan-2-yl)-1H-pyrazol-5-yl)-1H-benzo[d]imidazol-2-yl)-N,N-dimethylbenzenesulfon-amide] showed a pIC50 of 10.35. Work on `COc1cc(C)c(-c2cc3nc(-c4ccc(S(=O)(=O)N(C)C)cc4)[nH]c3cc2F)cn1` [Compound 39, 4-(5-fluoro-6-(6-methoxy-4-methylpyridin-3-yl)-1H-benzo [d]imidazol-2-yl)-N,N-dimeth-ylbenzenesulfonamide] yielded a pIC50 of 10.06. Compound `CN(C)S(=O)(=O)c1ccc(-c2nc3cc(-c4cnc(N)cc4Cl)c(F)cc3[nH]2)cc1` [Compound 40, 4-(6-(6-amino-4-chloropyr-idin-3-yl)-5-fluoro-1H-benzo [d]imidazol-2-yl)-N,N-dimeth-ylbenzenesuIfonamide] has a pIC50 of 10.20. `Cc1[nH]c(=O)ccc1-c1cc2nc(-c3ccc(S(=O)(=O)N(C)C)cc3)[nH]c2cc1F` [Compound 41, 4-(5-fluoro-6-(2-methyl-6-oxo-1,6-dihydropyridin-3-yl)-1H-benzo[d]imidazol-2-yl)-N,N-dimethylbenzenesulfon-amide] gave a pIC50 of 9.64. Work on `Cc1nc(N)ncc1-c1cc2[nH]c(-c3ccc(C(F)(F)F)cc3)nc2cc1F` [Compound 42, 5-(5-fluoro-2-(4-(trifluoro-methyl)phenyl)-1H-benzo[d]imidazol-6-yl)-4-methylpyrim-idine-2-amine] yielded a pIC50 of 9.85. `Cc1nc(N)ncc1-c1cc2[nH]c(-c3ccc(C(F)F)cc3)nc2c(F)c1F` [Compound 44, 5-(2-(4-(difluoromethyl)phen-yl)-4,5-difluoro-1H-benzo[d]imidazol-6-yl)-4-methylpyr-imidine-2-amine] gave a pIC50 of 10.02. `Cc1cc(N)ncc1-c1cc2[nH]c(-c3ccc(S(=O)(=O)N(C)C)cc3)nc2c(F)c1F` [Compound 45, 4-(6-(6-amino-4-methylpyr-idin-3-yl)-4,5-difluoro-1H-benzo[d]imidazol-2-yl)-N,N-dimethylbenzenesulfonamide] was tested, and the pIC50 was 10.48. In the case of `Nc1ncc(-c2cc3[nH]c(-c4ccc(C(F)F)cc4)nc3c(F)c2F)c(C(F)F)n1` [Compound 46, 4-(difluoromethyl)-5-(2-(4-(difluoromethyl)phenyl)-4,5-difluoro-1H-benzo[d]imid-azol-6-yl)pyrimidine-2-amine], the pIC50 was 10.38. Compound `CC(C)c1ncncc1-c1cc2[nH]c(-c3ccc(S(=O)(=O)N(C)C)cc3)nc2cc1F` [Compound 47, 4-(5-fluoro-6-(4-isopropyl-pyrimid-5-yl)-1H-benzo[d]imidazol-2-yl)-N,N-dimethyl-benzenesulfonamide] has a pIC50 of 10.44. `CN(C)S(=O)(=O)c1ccc(-c2nc3cc(F)c(-c4cnc(N)nc4C(F)F)cc3[nH]2)cc1` [Compound 51, 4-(6-(4-(difluoromethyl)-2-aminopyrimid-5-yl)-5-fluoro-1H-benzo[d]imidazol-2-yl)-N,N-dimethylbenzenesulfon-amide] was tested, and the pIC50 was 10.80. `Cc1ccncc1-c1cc2[nH]c(-c3ccc(S(=O)(=O)N(C)C)cc3)nc2cc1F` [Compound 55, 4-(6-(4-methylpyridin-3-yl)-5-fluoro-1H-benzo[d]imidazol-2-yl)-N,N-dimethylbenzene-sulfonamide] showed a pIC50 of 10.00. `CN(C)S(=O)(=O)c1ccc(-c2nc3c(F)c(F)c(-c4cnc(N)cc4Cl)cc3[nH]2)cc1` [Compound 57, 4-(6-(6-amino-4-chloropyri-din-3-yl)-4,5-difluoro-1H-benzo[d]imidazol-2-yl)-N,N-dimethylbenzenesulfonamide] showed a pIC50 of 10.44. In the case of `CC(C)n1nc(N)cc1-c1cc2[nH]c(-c3ccc(S(=O)(=O)N(C)C)cc3)nc2cc1F` [Compound 60, 4-(6-(1-isopropyl-3-amino-1H-pyrazol-5-yl)-5-fluoro-1H-benzo[d]imidazol-2-yl)-N,N-dimethylbenzenesulfonamide], the pIC50 was 10.24. `Nc1ncc(-c2cc3[nH]c(-c4ccc(C(F)(F)F)cc4)nc3c(F)c2F)c(C(F)F)n1` [Compound 68, 5-(2-(4-(trifluoromethyl)phen-yl)-4,5-difluoro-1H-benzo[d]-imidazol-6-yl)-4-(difluoro-methyl)pyrimidine-2-amine] showed a pIC50 of 10.05. In the case of `CC(C)n1ccnc1-c1cc2[nH]c(-c3ccc(C(F)(F)F)cc3)nc2c(F)c1F` [Compound 72, 2-(4-(trifluoromethyl)phenyl)-6-(1-isopropyl-1H-imidazol-2-yl)-4,5-difluoro-1H-benzo[d] imidazole], the pIC50 was 9.11. Work on `Fc1c(-c2cnc(N3CCOCC3)nc2C(F)F)cc2[nH]c(-c3ccc(C(F)(F)F)cc3)nc2c1F` [Compound 74] yielded a pIC50 of 9.77. `Fc1c(-c2ccnn2C2CC2)cc2[nH]c(-c3ccc(C(F)(F)F)cc3)nc2c1F` [Compound 75, 2-(4-(trifluoromethyl)phenyl)-6-(1-cyclopropyl-1H-pyrazol-5-yl)-4,5-difluoro-1H-benzo [d]imidazole] showed a pIC50 of 10.09. `Cc1nn(C(F)F)cc1-c1cc2[nH]c(-c3ccc(C(F)(F)F)cc3)nc2c(F)c1F` [Compound 76, 2-(4-(trifluoromethyl)phenyl)-6-(3-methyl-1-(difluorometh-yl)-1H-pyrazol-4-yl)-4,5-difluoro-1H-benzo[d]imidazole] was tested, and the pIC50 was 10.09. In the case of `Nc1cc(C(F)F)c(-c2cc3[nH]c(-c4ccc(C(F)(F)F)cc4)nc3c(F)c2F)cn1` [Compound 77, 2-(4-(trifluoromethyl)phenyl)-6-(4-(difluoromethyl)-6-amino-pyridin-3-yl)-4,5-difluoro-1H-benzo[d]imidazole], the pIC50 was 10.33. With `Nc1ncc(-c2cc3[nH]c(-c4ccc(F)c(C(F)(F)F)c4)nc3c(F)c2F)c(C(F)F)n1` [Compound 81, 5-(2-(3-(trifluoromethyl)-4-fluorophenyl)-4,5-difluoro-1H-benzo[d]imidazol-6-yl)-4-(difluoromethyl)pyrimidine-2-amine] the pIC50 was 9.82.
